Results taken from patent US10570168B2, “2′ and/or 5′ amino-acid ester phosphoramidate 3′-deoxy adenosine derivatives as anti- cancer compounds” (NuCana plc, priority 2014, dated 2020).

Legend:
[1] = tested on: leukaemic stem cell (LSC) compartment within the KG1a cell line; test: Immunophenotypic identification of the leukaemic stem cell compartment; assay type: cell-based; details: 72 h, for compound A at 1 mM and above
Experimental: KG1a cells were cultured for 72 h in the presence of a wide range of concentrations of each compound assayed. Cells were then harvested and labelled with a cocktail of anti-lineage antibodies (PE-cy7), anti-CD34 (FITC), anti-CD38 (PE) and anti-CD123 (PERCP cy5). The sub-population expressing a LSC phenotype were subsequently identified and were expressed as a percentage of all viable cells left in the culture. The percentages of stem cells remaining were then plotted on a dose-response graph and the effects of the compounds were compared with each other, and with the parent nucleoside.
The data obtained in these experiments were evaluated using one way ANOVA. All data was confirmed as Gaussian or a Gaussian approximation using the omnibus K2 test. LD50 values were calculated from the non-linear regression and line of best-fit analysis of the sigmoidal dose-response curves. All statistical analyses were performed using Graphpad Prism 6.0 software (Graphpad Software Inc., San Diego, Calif.).

MiaPaCa-2 = test: Solid tumour and haematological malignancy assay (CellTiterGlo); assay type: cell-based; details: Homo sapiens, MIA PaCa-2, 72 h; for IC50: read-out: IC50 (absolute IC50); for Emax: read-out: MI %
Experimental: (§1) In vitro viability assay were performed to assess the effects of compounds on cell viability in selected cell lines over 72 hr using the CellTiterGlo (CTG, Promega-G7573) assay. […] Cell viability assay using CellTiterGlo in 96-well plate were performed. Compound treatment 72 hrs, standard growth conditions, duplicates. Compounds were dissolved to 40 mM with thawed 100%. […] After compounds were dissolved in media, media containing compounds were warmed to 37° C. in incubator and then compounds in media were added to cell plates ([…]) in duplicates. […] All compound solubilities were checked and recorded again, then the plates were transferred to CO2 tissue culture incubator immediately and incubated for 3 days. DMSO final concentration is 0.5%.

MCF7 = test: as above; assay type: cell-based; details: Homo sapiens, MCF7, 72 h; for IC50: read-out: IC50 (absolute IC50); for Emax: read-out: MI %
Experimental: as §1

HepG2 [2] = test: as above; assay type: cell-based; details: Homo sapiens, HepG2, 72 h; for IC50: read-out: IC50 (absolute IC50); for Emax: read-out: MI %
Experimental: as §1

HEL92.1.7 = test: as above; assay type: cell-based; details: Homo sapiens, HEL 92.1.7, 72 h; for IC50: read-out: IC50 (absolute IC50); for Emax: read-out: MI %
Experimental: as §1

CCRFCEM = test: as above; assay type: cell-based; details: Homo sapiens, CCRF-CEM, 72 h; for IC50: read-out: IC50 (absolute IC50); for Emax: read-out: MI %
Experimental: as §1

HL-60 [3] = test: as above; assay type: cell-based; details: Homo sapiens, HL-60, 72 h; for IC50: read-out: IC50 (absolute IC50); for Emax: read-out: MI %
Experimental: as §1

HT29 = test: as above; assay type: cell-based; details: Homo sapiens, HT-29, 72 h; for IC50: read-out: IC50 (absolute IC50); for Emax: read-out: MI %
Experimental: as §1

KG-1 [4] = test: as above; assay type: cell-based; details: Homo sapiens, KG-1, 72 h; for IC50: read-out: IC50 (absolute IC50); for Emax: read-out: MI %
Experimental: as §1

K562 [5] = test: as above; assay type: cell-based; details: Homo sapiens, K562, 72 h; for IC50: read-out: IC50 (absolute IC50); for Emax: read-out: MI %
Experimental: as §1

RL (CRL-2261) = test: ATP (ViaLight plus) cytotoxicity assay; assay type: cell-based; details: 72 h, CRL (RL, CRL-2261)
Experimental: (§2) Certain compounds of the invention were subjected to further studies to test the cytotoxic activity of certain compounds of the invention and also to measure their activity against 4 haematological cancer cell lines • TdT positive CEM (Human ALL) • TdT negative K562 (Human CML) • TdT negative H1-60 (Human ANLL) • RL (CRL-2261) non-HD lymphoma • The concentrations of the active metabolite dATP (Cordycepin triphosphate) in these cell lines was also measured. • The cytotoxic activity and the intracellular 3′-dATP concentrations were also studied in the presence of hENT1, Adenosine Kinase (AK) and Adenosine Deaminase pharmacological inhibitors in CEM and RL cancer cell lines. Said inhibitors that mimic known cancer resistance mechanisms. Methods Cell Culture
(§3) HL-60 (ATCC® CCL-240™), K562 (ATCC® CCL-243™), CCRF-CEM (ATCC® CRM-CCL-119™) and RL (ATCC® CRL-2261™) leukaemia cell lines, obtained from the American Type Culture Collection (ATCC), Middlesex. HL-60 and K562 cell lines are deoxynucleotidyl transferase-negative (TdT-ve), whereas CCRF-CEM cell line is TdT+ve.
(§4) HL-60, K562, CCRF-CEM and RL cell lines were cultured in RPMI-1640 medium (Sigma Aldrich, UK), which were supplemented with 10% Fetal Bovine Serum (FBS) (PAA Laboratories), 1% amphotericin B (5.5 ml) and 1% penicillin/streptomycin (5.5 ml) (PAA Laboratories) and grown in flasks at 37° C. incubator with 5% CO2.
(§5) The amount of ATP was used as a measurement of cell number and cell viability. ATP ViaLight™ plus assay kit (Lonza, USA: Product No. LT07-121) to detect ATP in cells treated in luminescence compatible 96 well plates (initial concentration of cells was 1×10^4 cells/well) with cordycepin and ProTides at concentrations of: 0, 0.1, 0.5, 1, 5 and 10 μM, followed by incubation for 72 hours at 37° C. incubator with 5% CO2. For inhibitor studies, 10 μM of NBTI or 1 μM EHNA or A-134974 was added and left for 5 minutes before adding the drugs (see section 5 for inhibitor details).
(§6) After incubation, 50 μl of cell lysis reagent was added to the 96 well plates to release the intracellular ATP, followed by 100 μl of ATP monitoring reagent (AMR). The luminescent values of each well were determined using FLUOstar OPTIMA microplate reader (BMG Labtech) which convert ATP into light by using luciferase enzyme. Therefore, the amount of luminescence produced was directly proportional to the amount of ATP.
(§7) Cell lines were treated in the same way as described above but before treatment with drugs, a number of inhibitors were added: • 1) Nitrobenzylthioinosine (NBTI) (Sigma-Aldrich, St. Louis, Mo., product # N2255) blocks nucleoside transporters • 2) EHNA hydrochloride (Sigma-Aldrich, St. Louis, Mo., product # E114) blocks adenosine deaminase • 3) Adenosine kinase inhibitor A-134974 dihydrochloride hydrate (Sigma-Aldrich, St. Louis, Mo., product # A2846): blocks adenosine kinase
(§8) The dose-response curves of cytotoxicity of the drugs was determined using non-linear regression analysis of percentage cell viability versus concentration and EC50 values were obtained. The intracellular assay was conducted in five replicates for each condition. Intracellular assay was determined using paired t test (two-tailed) analysis of 3′ATP/ATP concentration and p-values were obtained. For all the analysis, Prism Software program (GraphPad Software) was used and Microsoft Powerpoint® 2013 was used to plot the results.

MCF-7 = test: CellTiterGlo viability assay, initial screening; assay type: cell-based; details: Homo sapiens, MCF7, 72 h, read-out: IC50 (relative IC50)
Experimental: (§9) In vitro viability assays were performed to assess the effects of compounds on cell viability in 7 selected cell lines over 72 hr using the CellTiterGlo (CTG, Promega-G7573) assay. The tests were performed in duplicates with treatment of compounds at 9 points, 3.16 folds titration in 96 well plates over ˜72 hr. The compound starting concentrations were […]. Cell viability assay using CellTiterGlo in 96-well plate were performed. The compound treatment was 72 hrs, under standard growth conditions, and in duplicate. Compounds were dissolved to 40 mM with thawed […]. Compounds were serially diluted at 3.16 fold in thawed DMSO, and warmed to 37° C. before being dissolved in media (2 μl+200 μl). After compounds were dissolved in media (media was also warmed to 37° C.). Media containing compounds were warmed to 37° C. in incubator and then compounds in media were added to cell plates (50 μl+50 μl), in duplicates. The compounds final concentrations were from […] to 19.9 nM. All compound solubilities were checked and recorded again, then the plates were transferred to CO2 tissue culture incubator immediately and incubated for 3 days. DMSO final concentration is 0.5%.

CCRF-CEM = test: CellTiterGlo viability assay, initial screening; assay type: cell-based; details: Homo sapiens, 72 h, read-out: IC50 (relative IC50)
Experimental: as §9

MOLT-4 = test: CellTiterGlo viability assay, initial screening; assay type: cell-based; details: Homo sapiens, MOLT-4, 72 h, read-out: IC50 (relative IC50)
Experimental: as §9

HepG2 [6] = test: CellTiterGlo viability assay, initial screening; assay type: cell-based; details: Homo sapiens, HepG2, 72 h, read-out: IC50 (relative IC50)
Experimental: as §9

HL-60 [7] = test: CellTiterGlo viability assay, initial screening; assay type: cell-based; details: Homo sapiens, HL-60, 72 h, read-out: IC50 (relative IC50)
Experimental: as §9

KG-1 [8] = test: CellTiterGlo viability assay, initial screening; assay type: cell-based; details: Homo sapiens, KG-1, 72 h, read-out: IC50 (relative IC50)
Experimental: as §9

K562 [9] = test: CellTiterGlo viability assay, initial screening; assay type: cell-based; details: Homo sapiens, K562, 72 h, read-out: IC50 (relative IC50)
Experimental: as §9

HL-60 (TdT negative) = test: ATP (ViaLight plus) cytotoxicity assay; assay type: cell-based, Human; details: Homo sapiens, HL-60, 72 h
Experimental: as §2, §3, §4, §5, §6, §8

K562 (TdT negative) = test: ATP (ViaLight plus) cytotoxicity assay; assay type: cell-based, Human; details: Homo sapiens, K562, 72 h
Experimental: as §2, §3, §4, §5, §6, §8

[10] = tested on: CCRF-CEM (TdT positive CEM); test: ATP (ViaLight plus) cytotoxicity assay; assay type: cell-based, Human; details: CEM (TdT+ve)
Experimental: as §2, §3, §4, §5, §6, §7, §8

| SMILES | LSC targeting compared with the parent nucleoside [1] | IC50 (MiaPaCa-2) | Emax (MiaPaCa-2) | IC50 (MCF7) | Emax (MCF7) | IC50 (HepG2 [2]) | Emax (HepG2 [2]) | IC50 (HEL92.1.7) | Emax (HEL92.1.7) | IC50 (CCRFCEM) | Emax (CCRFCEM) | IC50 (HL-60 [3]) | Emax (HL-60 [3]) | IC50 (HT29) | Emax (HT29) | IC50 (KG-1 [4]) | Emax (KG-1 [4]) | IC50 (K562 [5]) | Emax (K562 [5]) | other results |
| --- | --- | --- | --- | --- | --- | --- | --- | --- | --- | --- | --- | --- | --- | --- | --- | --- | --- | --- | --- | --- |
| C[C@H](NP(=O)(OC[C@@H]1C[C@@H](O)[C@H](n2cnc3c(N)nc(F)nc32)O1)Oc1ccccc1)C(=O)OCc1ccccc1 (mixture of isomers) [P, (2S)-benzyl 2-(((((2S,4R,5R)-5-(6-amino-2-fluoro-9H-purin-9-yl)-4-hydroxytetrahydrofuran-2-yl)methoxy)(phenoxy)phosphoryl)amino)propanoate] | significantly improved when compared with the parental nucleoside | 0.1 to 5 µM | 98% | 0.1 to 5 µM | 95% | 5 to 15 µM | 74% | 0.1 to 5 µM | 99% | 0.1 to 5 µM | 99% | 0.1 to 5 µM | 100% | 5 to 15 µM | 87% | 0.1 to 5 µM | 97% | 0.1 to 5 µM | 97% | – |
| CCCCCCOC(=O)[C@H](C)NP(=O)(OC[C@@H]1C[C@@H](O)[C@H](n2cnc3c(N)nc(F)nc32)O1)Oc1ccccc1 (stereo partly drawn) [R, (2S)-hexyl 2-(((((2S,4R,5R)-5-(6-amino-2-fluoro-9H-purin-9-yl)-4-hydroxytetrahydrofuran-2-yl)methoxy)(phenoxy)phosphoryl)amino)propanoate] | significantly improved when compared with the parental nucleoside | 5 to 15 µM | 98% | 0.1 to 5 µM | 87% | 5 to 15 µM | 82% | 0.1 to 5 µM | 99% | 0.1 to 5 µM | 100% | 0.1 to 5 µM | 100% | 15 to 100 µM | 92% | 0.1 to 5 µM | 96% | 5 to 15 µM | 96% | – |
| CCCCCOC(=O)[C@H](CC(C)C)NP(=O)(OC[C@@H]1C[C@H](O)[C@H](n2cnc3c(N)nc(F)nc32)O1)Oc1cccc2ccccc12 (stereo partly drawn) [Compound Q, 2-Fluoro-3′-deoxyadenosine-5′-O-[1-naphthyl(1-pentyloxy-L-leucinyl)] phosphate] | significantly improved when compared with the parental nucleoside | 0.1 to 5 µM | 100% | 0.1 to 5 µM | 99% | 0.1 to 5 µM | 94% | 0.1 to 5 µM | 99% | 0.1 to 5 µM | 101% | 0.1 to 5 µM | 99% | 15 to 100 µM | 88% | 5 to 15 µM | 103% | 0.1 to 5 µM | 100% | – |
| CCCCCOC(=O)[C@H](CC(C)C)NP(=O)(OC[C@@H]1C[C@@H](O)[C@H](n2cnc3c(N)ncnc32)O1)Oc1cccc2ccccc12 (mixture of isomers) [D, (2S)-pentyl 2-(((((2S,4R,5R)-5-(6-amino-9H-purin-9-yl)-4-hydroxytetrahydrofuran-2-yl)methoxy)(naphthalen-1-yloxy)phosphoryl)amino)-4-methylpentanoate] | – | – | – | – | – | – | – | – | – | – | – | – | – | – | – | – | – | – | – | IC50 (RL (CRL-2261)): 4.8 µM; IC50 (MCF-7): 0.1 to 5 µM; IC50 (CCRF-CEM): 5 to 15 µM; IC50 (MOLT-4): 0.1 to 5 µM; IC50 (HepG2 [6]): 5 to 15 µM; IC50 (HL-60 [7]): 5 to 15 µM; IC50 (KG-1 [8]): 5 to 15 µM; IC50 (K562 [9]): 5 to 15 µM; IC50 (HL-60 (TdT negative)): 5.4 µM; IC50 (K562 (TdT negative)): 4.2 µM; (FD) fold difference compared to Cordycepin = Cordycepin IC50/ProTide IC50 [10]: (3); IC50 ([10]; Homo sapiens, CCRF-CEM, 72 h, 72 hours): 6.1 µM |
